Results as given in PubChem BioAssay AID248 (DTP/NCI, 2004).
Values joined by “and” are separate entries in the source; they are usually repeats but may differ in a detail not shown here. Identical values can stand only once. Inconclusive results and toxic doses are left out.

Test system: L1210 leukemia ip in BDF1 mice, survival T/C
Test: NCI In Vivo Anticancer Drug Screen. Data for tumor model L1210 Leukemia (intraperitoneal) in B6D2F1 (BDF1) mice
Conditions: endpoint: mean survival time, higher = longer survival
Procedure, shortened: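 In this screen, tumor-bearing mice given compound are compared to those given vehicle, and their survival values are reported as a treated-to-control quotient.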

[1] = dose: 10.0 mg/kg/injection, schedule: Q04DX003 (ip), vehicle: saline
[2] = dose: 20.0 mg/kg/injection, schedule: Q04DX003 (ip), vehicle: saline
[3] = dose: 40.0 mg/kg/injection, schedule: Q04DX003 (ip), vehicle: saline
[4] = dose: 100.0 mg/kg/injection, schedule: Q04DX002 (ip), vehicle: saline with Tween-80
[5] = dose: 200.0 mg/kg/injection, schedule: Q04DX002 (ip), vehicle: saline with Tween-80
[6] = dose: 400.0 mg/kg/injection, schedule: Q04DX002 (ip), vehicle: saline with Tween-80
[7] = dose: 100.0 mg/kg/injection, schedule: Q01DX009 (ip), vehicle: Klucel (hydroxypropylcellulose) (HPC)
[8] = dose: 100.0 mg/kg/injection, schedule: Q01DX001 (ip), vehicle: saline
[9] = dose: 200.0 mg/kg/injection, schedule: Q01DX001 (ip), vehicle: saline
[10] = dose: 100.0 mg/kg/injection, schedule: Q01DX009 (ip), vehicle: saline with Tween-80
[11] = dose: 100.0 mg/kg/injection, schedule: Q04DX003 (ip), vehicle: saline with Tween-80
[12] = dose: 200.0 mg/kg/injection, schedule: Q01DX009 (ip), vehicle: saline with Tween-80
[13] = dose: 200.0 mg/kg/injection, schedule: Q04DX003 (ip), vehicle: saline with Tween-80
[14] = dose: 400.0 mg/kg/injection, schedule: Q04DX003 (ip), vehicle: saline with Tween-80
[15] = dose: 50.0 mg/kg/injection, schedule: Q04DX003 (ip), vehicle: saline with Tween-80
[16] = dose: 400.0 mg/kg/injection, schedule: Q01DX001 (ip), vehicle: saline

OC(CN1CC1)C(O)CN1CC1 (centres undefined)
T/C (dose: 0.06 mg/kg/injection, schedule: Q01DX Z (ip), vehicle: carboxymethylcellulose (CMC)): 114 % of control | T/C (dose: 0.4 mg/kg/injection, schedule: Q01DX Z (ip), vehicle: saline): 100 % of control | T/C (dose: 0.5 mg/kg/injection, schedule: Q01DX Z (ip), vehicle: carboxymethylcellulose (CMC)): 200 % of control | T/C (dose: 0.6 mg/kg/injection, schedule: Q01DX Z (ip), vehicle: saline): 100 % of control | T/C (dose: 0.9 mg/kg/injection, schedule: Q01DX Z (ip), vehicle: saline): 95 % of control | T/C (dose: 1.0 mg/kg/injection, schedule: Q01DX Z (ip), vehicle: carboxymethylcellulose (CMC)): 90 % of control | T/C (dose: 1.3 mg/kg/injection, schedule: Q01DX Z (ip), vehicle: saline): 95 % of control

COc1ccccc1-n1c(O)c(N=Nc2ccccc2C)c(=O)n(-c2ccc(C)cc2)c1=S
T/C (dose: 37.5 mg/kg/injection, schedule: Q01DX001 (ip), vehicle: Klucel (hydroxypropylcellulose) (HPC)): 102 % of control | T/C (dose: 75.0 mg/kg/injection, schedule: Q01DX001 (ip), vehicle: Klucel (hydroxypropylcellulose) (HPC)): 99 % of control | T/C (dose: 150.0 mg/kg/injection, schedule: Q01DX001 (ip), vehicle: Klucel (hydroxypropylcellulose) (HPC)): 89 % of control

CC(C)(C)C(=O)CC(=O)C(C)(C)C.CC(C)(C)C(=O)CC(=O)C(C)(C)C.[Ni]
T/C [1]: 100 % of control | T/C [2]: 94 % of control | T/C [3]: 117 % of control

COC1OC(CCl)C(OC(C)=O)C(OC(C)=O)C1OS(C)(=O)=O (centres undefined)
T/C (dose: 100.0 mg/kg/injection, schedule: Q04DX002 (ip), vehicle: Klucel (hydroxypropylcellulose) (HPC)): 91 % of control | T/C (dose: 200.0 mg/kg/injection, schedule: Q04DX002 (ip), vehicle: Klucel (hydroxypropylcellulose) (HPC)): 91 % of control | T/C (dose: 400.0 mg/kg/injection, schedule: Q04DX002 (ip), vehicle: Klucel (hydroxypropylcellulose) (HPC)): 97 % of control

c1ccc(C(c2ccccc2)c2ccncc2)cc1
T/C [4]: 87 % of control | T/C [5]: 90 % of control | T/C [6]: 87 % of control

Cc1ccc([N+](=O)[O-])cc1NC(=O)N(C1CCCCC1)C1CCCCC1
T/C [7]: 95 % of control | T/C (dose: 200.0 mg/kg/injection, schedule: Q01DX009 (ip), vehicle: Klucel (hydroxypropylcellulose) (HPC)): 97 % of control | T/C (dose: 400.0 mg/kg/injection, schedule: Q01DX009 (ip), vehicle: Klucel (hydroxypropylcellulose) (HPC)): 97 % of control

CN1C(=O)N(C)C2(CCCC2)C1=O
T/C (dose: 100.0 mg/kg/injection, schedule: Q01DX001 (ip), vehicle: carboxymethylcellulose (CMC)): 107 % of control | T/C (dose: 200.0 mg/kg/injection, schedule: Q01DX001 (ip), vehicle: carboxymethylcellulose (CMC)): 104 % of control | T/C (dose: 400.0 mg/kg/injection, schedule: Q01DX001 (ip), vehicle: carboxymethylcellulose (CMC)): 104 % of control

CSC(=S)NNC(=O)c1ccc(C(F)(F)F)cc1
T/C [1]: 106 % of control | T/C [2]: 106 % of control | T/C [3]: 105 % of control

CN(CCC#N)C1=CCCCCC1
T/C [8]: 101 % of control | T/C [9]: 97 % of control

Cc1cc(C)c(NC(=O)NCCCl)c(C)c1
T/C (dose: 50.0 mg/kg/injection, schedule: Q01DX009 (ip), vehicle: saline with Tween-80): 103 % of control | T/C [10]: 109 % of control | T/C [11]: 91 % of control | T/C [12]: 116 % of control | T/C [13]: 93 % of control | T/C [14]: 117 % of control

CC(=O)Nc1nc(C)c(CCCNS(=O)(=O)c2ccc([N+](=O)[O-])cc2)c(=O)[nH]1
T/C (dose: 100.0 mg/kg/injection, schedule: Q01DX009 (ip), vehicle: gum acacia): 90 % of control | T/C (dose: 200.0 mg/kg/injection, schedule: Q01DX009 (ip), vehicle: gum acacia): 88 % of control | T/C (dose: 400.0 mg/kg/injection, schedule: Q01DX009 (ip), vehicle: gum acacia): 87 % of control

COC(=O)c1[nH]cnc1/N=N/Nc1ccc(Cl)c(Cl)c1
T/C (dose: 50.0 mg/kg/injection, schedule: Q01DX001 (ip), vehicle: other): 94 % of control | T/C (dose: 100.0 mg/kg/injection, schedule: Q01DX001 (ip), vehicle: other): 95 % of control and 103 % of control | T/C (dose: 200.0 mg/kg/injection, schedule: Q01DX001 (ip), vehicle: other): 105 % of control and 110 % of control | T/C (dose: 400.0 mg/kg/injection, schedule: Q01DX001 (ip), vehicle: other): 97 % of control and 100 % of control

COC(=O)C1(C(=O)OC)NNC(=O)c2cc(Br)ccc2N1
T/C (dose: 50.0 mg/kg/injection, schedule: Q01DX001 (ip), vehicle: saline): 101 % of control | T/C [8]: 89 % of control | T/C [9]: 95 % of control

c1ccc2c(c1)OCC(CNC1CCCCC1)O2 (centres undefined)
T/C (dose: 12.5 mg/kg/injection, schedule: Q04DX003 (ip), vehicle: saline with Tween-80): 100 % of control | T/C (dose: 25.0 mg/kg/injection, schedule: Q04DX003 (ip), vehicle: saline with Tween-80): 94 % of control and 100 % of control | T/C [15]: 94 % of control | T/C [11]: 98 % of control and 100 % of control

Cc1ccc(N=Nc2ccc(C)cc2NC(=O)c2ccc(Cl)cc2)cc1
T/C (dose: 50.0 mg/kg/injection, schedule: Q01DX001 (ip), vehicle: saline with Tween-80): 100 % of control | T/C [15]: 90 % of control | T/C (dose: 100.0 mg/kg/injection, schedule: Q01DX001 (ip), vehicle: saline with Tween-80): 90 % of control | T/C [10]: 93 % of control and 94 % of control | T/C [4]: 94 % of control and 90 % of control | T/C [11]: 93 % of control | T/C [12]: 95 % of control and 97 % of control | T/C [5]: 93 % of control and 91 % of control | T/C [13]: 93 % of control | T/C (dose: 400.0 mg/kg/injection, schedule: Q01DX009 (ip), vehicle: saline with Tween-80): 90 % of control and 92 % of control | T/C [6]: 87 % of control and 89 % of control | T/C [14]: 89 % of control and 90 % of control

CCCCCCCCCN1CCCC(OC(=O)N(C)C)C1 (centres undefined)
T/C (dose: 25.0 mg/kg/injection, schedule: Q04DX002 (ip), vehicle: saline): 103 % of control | T/C (dose: 50.0 mg/kg/injection, schedule: Q04DX002 (ip), vehicle: saline): 103 % of control | T/C (dose: 100.0 mg/kg/injection, schedule: Q04DX002 (ip), vehicle: saline): 100 % of control

O=C1CCCCC1Cc1ccccc1 (centres undefined)
T/C (dose: 200.0 mg/kg/injection, schedule: Q04DX003 (ip), vehicle: acetone): 95 % of control

CCOC(=O)c1[nH]c(C(=O)O)c(CCC(=O)OC)c1C
T/C (dose: 50.0 mg/kg/injection, schedule: Q01DX009 (ip), vehicle: Klucel (hydroxypropylcellulose) (HPC)): 110 % of control | T/C (dose: 100.0 mg/kg/injection, schedule: Q01DX001 (ip), vehicle: Klucel (hydroxypropylcellulose) (HPC)): 93 % of control | T/C [7]: 90 % of control | T/C (dose: 200.0 mg/kg/injection, schedule: Q01DX001 (ip), vehicle: Klucel (hydroxypropylcellulose) (HPC)): 98 % of control | T/C (dose: 300.0 mg/kg/injection, schedule: Q01DX009 (ip), vehicle: Klucel (hydroxypropylcellulose) (HPC)): 100 % of control | T/C (dose: 400.0 mg/kg/injection, schedule: Q01DX001 (ip), vehicle: Klucel (hydroxypropylcellulose) (HPC)): 97 % of control

O=C1COc2cc(O)c(O)cc21
T/C [8]: 104 % of control | T/C [9]: 103 % of control | T/C [16]: 104 % of control

O=C(CCCCC(=O)OCC1COCO1)OCC1COCO1 (centres undefined)
T/C (dose: 222.0 mg/kg/injection, schedule: Q01DX Z (ip), vehicle: methylcellulose (MC)): 98 % of control | T/C (dose: 333.0 mg/kg/injection, schedule: Q01DX Z (ip), vehicle: methylcellulose (MC)): 98 % of control | T/C (dose: 500.0 mg/kg/injection, schedule: Q01DX Z (ip), vehicle: methylcellulose (MC)): 98 % of control

COc1ccc(C(=S)N2CCN(c3cccc(Cl)c3)CC2)cc1
T/C [8]: 96 % of control | T/C [9]: 91 % of control | T/C [16]: 91 % of control

Cc1ccc(S(=O)(=O)NC(=O)O/N=C/c2ccccn2)cc1
T/C [11]: 98 % of control | T/C [13]: 101 % of control | T/C [14]: 104 % of control
